From PubChem BioAssay (NCI)
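Grown in 96-well plates, cells were treated for 48 hours with each compound at five concentrations. Insufficient inhibition: endpoint recorded as highest concentration tested. The concentration for 50% growth inhibition is given as GI50. The concentration for full growth arrest is given as TGI.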

Experiments:
Assay in all cases: NCI-60 cell line screen, 48 h
TK-10 renal = tested on: TK-10 renal
HS 578T breast = tested on: HS 578T breast
ACHN renal = tested on: ACHN renal
SR leukemia = tested on: SR leukemia
SN12C renal = tested on: SN12C renal
SNB-19 CNS = tested on: SNB-19 CNS
SW-620 colon = tested on: SW-620 colon
LOX IMVI melanoma = tested on: LOX IMVI melanoma
OVCAR-3 ovarian = tested on: OVCAR-3 ovarian
SK-OV-3 ovarian = tested on: SK-OV-3 ovarian
SK-MEL-5 melanoma = tested on: SK-MEL-5 melanoma
PC-3 prostate = tested on: PC-3 prostate
U251 CNS = tested on: U251 CNS
M14 melanoma = tested on: M14 melanoma
DU-145 prostate = tested on: DU-145 prostate
CAKI-1 renal = tested on: CAKI-1 renal
SF-539 CNS = tested on: SF-539 CNS
T-47D breast = tested on: T-47D breast
K-562 leukemia = tested on: K-562 leukemia
SF-268 CNS = tested on: SF-268 CNS
SK-MEL-28 melanoma = tested on: SK-MEL-28 melanoma
CCRF-CEM leukemia = tested on: CCRF-CEM leukemia
MALME-3M melanoma = tested on: MALME-3M melanoma
MDA-MB-435 = tested on: MDA-MB-435
NCI-H23 lung = tested on: NCI-H23 lung
UO-31 renal = tested on: UO-31 renal
UACC-257 melanoma = tested on: UACC-257 melanoma
OVCAR-4 ovarian = tested on: OVCAR-4 ovarian
UACC-62 melanoma = tested on: UACC-62 melanoma
786-0 renal = tested on: 786-0 renal
HCT-15 colon = tested on: HCT-15 colon
MOLT-4 leukemia = tested on: MOLT-4 leukemia
SK-MEL-2 melanoma = tested on: SK-MEL-2 melanoma
A498 renal = tested on: A498 renal
HCT-116 colon = tested on: HCT-116 colon
MDA-MB-231 breast = tested on: MDA-MB-231 breast
OVCAR-5 ovarian = tested on: OVCAR-5 ovarian
A549 NSCLC = tested on: A549 NSCLC
NCI-H460 lung = tested on: NCI-H460 lung
HCC-2998 colon = tested on: HCC-2998 colon
OVCAR-8 ovarian = tested on: OVCAR-8 ovarian
RXF 393 renal = tested on: RXF 393 renal
SNB-75 CNS = tested on: SNB-75 CNS
MCF7 breast = tested on: MCF7 breast
KM12 colon = tested on: KM12 colon
COLO 205 colon = tested on: COLO 205 colon
SF-295 CNS = tested on: SF-295 CNS
NCI-H522 lung = tested on: NCI-H522 lung
HL-60(TB) leukemia = tested on: HL-60(TB) leukemia
HT29 colon = tested on: HT29 colon
RPMI-8226 leukemia = tested on: RPMI-8226 leukemia
NCI/ADR-RES ovarian = tested on: NCI/ADR-RES ovarian
NCI-H226 lung = tested on: NCI-H226 lung
HOP-92 NSCLC = tested on: HOP-92 NSCLC
IGROV1 ovarian = tested on: IGROV1 ovarian
BT-549 breast = tested on: BT-549 breast
HOP-62 NSCLC = tested on: HOP-62 NSCLC

N#Cc1cccc(C(=O)c2cnn(-c3ccc(F)cc3)c2N)c1
GI50 (TK-10 renal): > 25 µM | TGI (TK-10 renal): > 25 µM | GI50 (HS 578T breast): > 25 µM | TGI (HS 578T breast): > 25 µM | GI50 (ACHN renal): > 25 µM | TGI (ACHN renal): > 25 µM | GI50 (SR leukemia): > 25 µM | TGI (SR leukemia): > 25 µM | GI50 (SN12C renal): > 25 µM | TGI (SN12C renal): > 25 µM | GI50 (SNB-19 CNS): > 25 µM | TGI (SNB-19 CNS): > 25 µM | GI50 (SW-620 colon): > 25 µM | TGI (SW-620 colon): > 25 µM | GI50 (LOX IMVI melanoma): > 25 µM | TGI (LOX IMVI melanoma): > 25 µM | GI50 (OVCAR-3 ovarian): > 25 µM | TGI (OVCAR-3 ovarian): > 25 µM | GI50 (SK-OV-3 ovarian): > 25 µM | TGI (SK-OV-3 ovarian): > 25 µM | GI50 (SK-MEL-5 melanoma): > 25 µM | TGI (SK-MEL-5 melanoma): > 25 µM | GI50 (PC-3 prostate): > 25 µM | TGI (PC-3 prostate): > 25 µM | GI50 (U251 CNS): 18.1 µM | TGI (U251 CNS): > 25 µM | GI50 (M14 melanoma): > 25 µM | TGI (M14 melanoma): > 25 µM | GI50 (DU-145 prostate): > 25 µM | TGI (DU-145 prostate): > 25 µM | GI50 (CAKI-1 renal): > 25 µM | TGI (CAKI-1 renal): > 25 µM | GI50 (SF-539 CNS): > 25 µM | TGI (SF-539 CNS): > 25 µM | GI50 (T-47D breast): > 25 µM | TGI (T-47D breast): > 25 µM | GI50 (K-562 leukemia): > 25 µM | TGI (K-562 leukemia): > 25 µM | GI50 (SF-268 CNS): > 25 µM | TGI (SF-268 CNS): > 25 µM | GI50 (SK-MEL-28 melanoma): > 25 µM | TGI (SK-MEL-28 melanoma): > 25 µM | GI50 (CCRF-CEM leukemia): > 25 µM | TGI (CCRF-CEM leukemia): > 25 µM | GI50 (MALME-3M melanoma): > 25 µM | TGI (MALME-3M melanoma): > 25 µM | GI50 (MDA-MB-435): > 25 µM | TGI (MDA-MB-435): > 25 µM | GI50 (NCI-H23 lung): > 25 µM | TGI (NCI-H23 lung): > 25 µM | GI50 (UO-31 renal): > 25 µM | TGI (UO-31 renal): > 25 µM | GI50 (UACC-257 melanoma): > 25 µM | TGI (UACC-257 melanoma): > 25 µM | GI50 (OVCAR-4 ovarian): > 25 µM | TGI (OVCAR-4 ovarian): > 25 µM | GI50 (UACC-62 melanoma): > 25 µM | TGI (UACC-62 melanoma): > 25 µM | GI50 (786-0 renal): > 25 µM | TGI (786-0 renal): > 25 µM | GI50 (HCT-15 colon): > 25 µM | TGI (HCT-15 colon): > 25 µM | GI50 (MOLT-4 leukemia): > 25 µM | TGI (MOLT-4 leukemia): > 25 µM | GI50 (SK-MEL-2 melanoma): 24.4 µM | TGI (SK-MEL-2 melanoma): > 25 µM | GI50 (A498 renal): > 25 µM | TGI (A498 renal): > 25 µM | GI50 (HCT-116 colon): > 25 µM | TGI (HCT-116 colon): > 25 µM | GI50 (MDA-MB-231 breast): > 25 µM | TGI (MDA-MB-231 breast): > 25 µM | GI50 (OVCAR-5 ovarian): > 25 µM | TGI (OVCAR-5 ovarian): > 25 µM | GI50 (A549 NSCLC): > 25 µM | TGI (A549 NSCLC): > 25 µM | GI50 (NCI-H460 lung): > 25 µM | TGI (NCI-H460 lung): > 25 µM | GI50 (HCC-2998 colon): > 25 µM | TGI (HCC-2998 colon): > 25 µM | GI50 (OVCAR-8 ovarian): > 25 µM | TGI (OVCAR-8 ovarian): > 25 µM | GI50 (RXF 393 renal): > 23.4 µM | TGI (RXF 393 renal): > 25 µM | GI50 (SNB-75 CNS): > 11.5 µM | TGI (SNB-75 CNS): > 22.4 µM | GI50 (MCF7 breast): > 25 µM | TGI (MCF7 breast): > 25 µM | GI50 (KM12 colon): > 25 µM | TGI (KM12 colon): > 25 µM | GI50 (COLO 205 colon): > 25 µM | TGI (COLO 205 colon): > 25 µM | GI50 (SF-295 CNS): > 20.1 µM | TGI (SF-295 CNS): > 25 µM | GI50 (NCI-H522 lung): > 25 µM | TGI (NCI-H522 lung): > 25 µM | GI50 (HL-60(TB) leukemia): > 25 µM | TGI (HL-60(TB) leukemia): > 25 µM | GI50 (HT29 colon): > 25 µM | TGI (HT29 colon): > 25 µM | GI50 (RPMI-8226 leukemia): > 25 µM | TGI (RPMI-8226 leukemia): > 25 µM | GI50 (NCI/ADR-RES ovarian): > 25 µM | TGI (NCI/ADR-RES ovarian): > 25 µM | GI50 (NCI-H226 lung): > 25 µM | TGI (NCI-H226 lung): > 25 µM | GI50 (HOP-92 NSCLC): > 25 µM | TGI (HOP-92 NSCLC): > 25 µM | GI50 (IGROV1 ovarian): > 25 µM | TGI (IGROV1 ovarian): > 25 µM | GI50 (BT-549 breast): > 25 µM | TGI (BT-549 breast): > 25 µM | GI50 (HOP-62 NSCLC): > 17.2 µM | TGI (HOP-62 NSCLC): > 25 µM
